# Results: paper PMC9104013, “Role of Polyamine-Induced Dimerization of Antizyme in Its Cellular Functions” (International Journal of Molecular Sciences, 2022)
# Experiments:
# hair follicle cycle = system: hair follicle cycle; parameters: method as in PMID 19956989; details: mice; cited from earlier work
# [1] = system: OAZ1-overexpressing DU145 cells; test: Uptake of Spd and its analogues in OAZ1-overexpressing DU145 cells; format: cell-based; details: DOX 250 ng/mL 24 h, compounds 100 µM, 6 h
# Method: Figure 3 2-MeSpd is the weakest inducer of OAZ1 synthesis and the weakest downregulator of ODC in DU145 cells. (A) Uptake of Spd and its analogues in CHX-treated DU145 cells. After 2 h preincubation with CHX (100 µg/mL), the compounds (100 µM) were added, and incubation continued for 4 h before the analysis of the intracellular analogue concentration. (B) Uptake of Spd and its analogues in OAZ1-overexpressing DU145 cells. OAZ1 was induced by 24 h preincubation with DOX (250 ng/mL). The compounds (100 µM) were added for further 6 h before the analysis of intracellular analogue concentration. (C) Effect of Spd and the analogues on OAZ1 protein levels in DU145 cells. The cells were incubated for 4 h with 100 μM analogues in the presence of the proteasomal inhibitor, MG132 (25 μM). (D) Effect of Spd and the analogues on ODC activity in DU145 cells. […]
# Polyamines were measured with HPLC according to the published method. Acid-precipitated pellets were dissolved to 0.1 M NaOH, and the amount of DNA was measured using the PicoGreen reagent (Invitrogen) according to manufacturer’s instructions using dilutions of calf thymus DNA (Sigma-Aldrich) as standard curve. Protein concentrations were measured using Bio-Rad protein kit with dilutions of bovine serum albumin (Bio-Rad, Hercules, CA, USA) as standards. ODC activities were measured from the cytosolic fractions as described earlier. […]
# ODC [2] = molecular target: T1, ODC (Homo sapiens, UniProt P11926); test: In vitro effect of Spd and its analogues on ODC activity in cytosolic extract; format: biochemical; details: 1 mM, ODC-enriched DU145 cell sample, 30 min, +37 °C
# T1 construct: ODC-enriched lysate was prepared from subconfluent DU145 cells 6 h after medium change; endogenous in cells; host or cells: DU145 cells (cytosolic extract)
# T1 sequence (P11926 1-461): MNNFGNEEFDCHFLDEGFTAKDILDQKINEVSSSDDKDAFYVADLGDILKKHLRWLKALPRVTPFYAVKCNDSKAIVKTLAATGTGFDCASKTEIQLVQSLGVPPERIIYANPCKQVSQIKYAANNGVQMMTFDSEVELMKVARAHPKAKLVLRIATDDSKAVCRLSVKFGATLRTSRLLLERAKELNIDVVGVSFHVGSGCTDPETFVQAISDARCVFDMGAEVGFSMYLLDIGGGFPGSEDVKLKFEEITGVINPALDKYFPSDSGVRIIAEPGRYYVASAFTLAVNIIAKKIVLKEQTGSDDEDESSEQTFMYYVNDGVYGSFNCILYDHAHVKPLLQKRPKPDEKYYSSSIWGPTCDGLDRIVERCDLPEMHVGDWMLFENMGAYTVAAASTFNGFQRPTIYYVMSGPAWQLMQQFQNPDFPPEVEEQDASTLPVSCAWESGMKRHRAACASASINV
# Method: (§1) ODC-enriched lysate was prepared from subconfluent DU145 cells 6 h after medium change by lysing the cells in buffer containing 25 mM Tris-HCl, pH 7.4, 1 mM DTT, and 0.01% Tween-80. OAZ1-enriched lysate was prepared from OAZ1-overexpressing DU145 cells in the same buffer. The lysate was cleared by centrifugation, and the endogenous polyamines were removed by ultrafiltration through 3K-cutoff filter and washing twice with lysis buffer. In experiment 1, ODC-enriched cytoplasmic extract (~100 μg of total protein) was incubated for 30 min at +37 °C in the presence of 1 mM Spd or analogues before ODC activity assay. In experiment 2, ODC-enriched cytoplasmic extract (~100 μg of total protein) was incubated for 30 min at +37 °C with OAZ1-enriched cytoplasmic extract (~100 μg of total protein) in the presence of 1 mM Spd or analogues before ODC activity assay.
# ODC [3] = test: as above; format: biochemical; details: 1 mM, ODC-enriched extract plus extract from OAZ1-overexpressing cells
# Method: as §1
smiles,measurement,setting,value
CC(N)CCNCCCCN (stereo not shown) [1-MeSpd],Hair follicle cycle,hair follicle cycle,activate the hair follicle cycle
CC(CN)CNCCCCN (stereo not shown) [2-MeSpd],Uptake upon DOX-induced expression of OAZ1,[1],reduced the uptake
"NCCCCNCCCN [Spd, spermidine]",Effect of direct addition on ODC activity in vitro,ODC [2],did not affect ODC activity
same,Effect on the ability of OAZ1 to inhibit ODC activity in vitro,ODC [3],did not affect the ability of OAZ1 to inhibit ODC activity
